Laboratory results as given in patent US20250049888A1, “USE OF THE NEGR1 PROTEIN AND BIOLOGICALLY ACTIVE FRAGMENTS THEREOF IN THE THERAPEUTIC TREATMENT OF ALK-RELATED DISEASES” (FONDAZIONE TELETHON ETS (70%), priority 2021, published 2025).

Tests used:
ERK1/2 = ERK1/2 phosphorylation in N2a cells, western or dot blotting; format: cell-based, murine; conditions: 10 minutes; for ERK1/2 phosphorylation (phospho-ERK/ERK): synthetic peptides, 10 μM
Procedure: Protein level and relative phosphorylation was assessed by western blotting. Briefly, upon a wash in PBS, cells were solubilized in lysis buffer (150 mM NaCl, 50 mM HEPES, 0.5% NP40, 1% sodium-deoxycholate). After 1 hour under mild agitation, the lysate was clarified by centrifugation for 20 min at 16,000 g. All experimental procedures were performed at 4° C. Protein concentrations were evaluated via Bradford assay (Bio-Rad, USA). For Western blotting experiments, an equal amount of proteins was diluted with 0.25% 5× Laemmli buffer. The samples were separated on 10% SDS-PAGE gels which were transferred onto nitrocellulose membrane (Sigma-Aldrich) at 80 V for 120 min at 4° C. Primary antibodies were: Beta-actin (Santa Cruz Biotechnology, sc-47778), ALK (Santa Cruz Biotechnology, sc-398791), N-myc (Santa Cruz Biotechnology, sc-56729), Phospho-p44/42 MAPK (Erk1/2) (Thr202/Tyr204) (Cell Signaling Technology), p44/42 MAPK (Erk1/2) (137F5) Rabbit mAb (Cell Signaling Technology), Akt (pan) (11E7) Rabbit mAb (Cell Signaling Technology), Phospho-Akt (Ser473) (D9E) XP® Rabbit mAb (Cell Signaling Technology), S6 Ribosomal Protein (5G10) Rabbit mAb (Cell Signaling Technology). Antibodies were applied overnight in blocking buffer (20 mM Tris, pH 7.4, 150 mM NaCl, 0.1% Tween 20, and 5% nonfat dry milk). Proteins were detected using the ECL prime detection system (GE Healthcare). The ECL signals were acquired with the imaging ChemiDoc Touch system (Bio Rad Laboratory Italy, Segrate, Italy). The optical density of the specific bands was quantified with ImageLab software (Bio Rad).
ALK triggers a signaling cascade that involves ERK and AKT kinases phosphorylation.
Additionally, the N2a cells were treated with the following synthetic peptides: the synthetic version of PepA-1 (synPepA-1), a scramble peptide including the GDKISV sequence (scr-GDKISV, substituting the W, tryptophan, that can undergo oxidation, with I, Isoleucine), and a scramble peptide (10 μM, 10 minutes). […]

N2a cells [1] = assay: N2a proliferation, cell number at DIV5; format: cell-based, murine; conditions: 200 ng daily, vs GFP
Procedure: Next, 10,000 naive N2a cells were seeded and treated daily with 200 ng Negr1, PepA, PepB, PepC, or GFP. At DIV5, cell number was evaluated.

[2] = system: A549 (adenocarcinoma alveolar basal epithelial cells); assay: Growth of human cancer-derived cell line, MTT assay; format: cell-based; conditions: 200 ng daily, vs GFP
Procedure: (§1) The 3-(4,5-dimethylthiazol-2-yl)-2,5-diphenyl tetrazolium bromide (MTT) assay was performed to evaluate culture vitality. N2a cells were cultured in a 96-well plate at a concentration of 5×10^3 cell/cm^2. Treatment condition is indicated in the result section. At the end of the treatment, the MTT solution was added to the cell medium at a final concentration of 0.25 mg/mL. The incubation lasted 30 minutes at 37° C. Next, the medium was removed and the formazan precipitates were collected in DMSO (200 μL). The absorbance was measured at 570 nm using a spectrophotometer (Varioskan LUX, Thermofisher) as a proxy for cell viability. Relative cell viability fold is expressed over the control condition.
(§2) Next, the capability of Negr1 and peptide PepA to halt the growth of human cancer-derived cell lines, namely U87 (glioblastoma), SK-Mel5 (melanoma), MCF7 (breast adenocarcinoma), A549 (adenocarcinoma alveolar basal epithelial cells), and SH-SY5Y (neuroblastoma) was tested. To this aim, each line was treated daily with 200 ng GFP, rNegr1, or PepA. At DIV5, cellular growth was evaluated by MTT assay. […] Such results are in good agreement with the expression of the receptor ALK, that has been experimentally detected in cancer cell lines of ectodermal origin (including small cell lung carcinoma, breast carcinoma, melanoma, neuroblastoma, and glioblastoma) (Dirks et al. 2002).

SK-Mel5 (melanoma) = assay: as above; format: cell-based; conditions: 200 ng daily, vs GFP
Procedure: as §1, §2

SH-SY5Y (neuroblastoma) = assay: as above; format: cell-based; conditions: 200 ng daily, vs GFP
Procedure: as §1, §2

U87 (glioblastoma) = assay: as above; format: cell-based; conditions: 200 ng daily, vs GFP
Procedure: as §1, §2

[3] = system: MCF7 (breast adenocarcinoma); assay: as above; format: cell-based; conditions: 200 ng daily, vs GFP
Procedure: as §1, §2

N2a cells [4] = assay: N2a cell growth, MTT assay; format: cell-based, murine
Procedure: as §1
At the physiological level, Negr1 exists as a GPI-anchored membrane-bound protein and as a soluble protein released upon metalloprotease cleavage (Sanz et al. 2015; Pischedda and Piccoli 2015). Thus, the inventors studied whether ectopic treatment with soluble recombinant Negr1 (Negr1) might modulate cancer cell growth. […] At DIV5, cellular growth was evaluated by MTT assay.
To further narrow down the minimal biologically active sequence within PepA, the PepA structure was analysed in silico. […] At DIV5, cellular growth was evaluated by MTT assay.

NRGDKISVSVSSSSGGRAWDWDIAKPGLAILTF (Scramble-GDKISV) [scr-GDKISV]
ERK1/2 phosphorylation (phospho-ERK/ERK) (ERK1/2): reduced ERK1/2 phosphorylation

GDKWSV (minimum active sequence) [GDKWSV peptide]
ERK1/2 phosphorylation (dot-blot) (ERK1/2; 30 nM): severe reduction of ERK1/2 phosphorylation

DGASKGAWLNRSSIIFAGVWGSKDDPRVSISTL (PepA-1-6aa scramble) [reference compound]
ERK1/2 phosphorylation (phospho-ERK/ERK) (ERK1/2): did not alter ERK phosphorylation

Negr1: soluble recombinant full-length Negr1 protein, Strep-FLAG tagged, expressed and purified from HEK293 cells
N2a proliferation (cell number) at DIV5 (N2a cells [1]): significantly reduced N2a proliferation | growth of A549 cells (MTT) at DIV5 [2]: significantly reduce the growth | growth of SK-Mel5 cells (MTT) at DIV5 (SK-Mel5 (melanoma)): significantly reduce the growth | growth of SH-SY5Y cells (MTT) at DIV5 (SH-SY5Y (neuroblastoma)): significantly reduce the growth | growth of U87 cells (MTT) at DIV5 (U87 (glioblastoma)): significantly reduce the growth | growth of MCF7 cells (MTT) at DIV5 [3]: significantly reduce the growth | N2a growth (MTT) at DIV5 (N2a cells [4]; 200 ng daily, vs GFP): significantly reduced N2a growth | N2A growth / cellular vitality (MTT) at DIV5 (N2a cells [4]; 3 μM daily, vs vehicle (Lorlatinib) or GFP (rNegr1, PepA-1)): impaired N2A growth to a similar extent
